Data as given in patent US10125142B2, “Method for purifying mitomycin C” (Kyowa Hakko Kirin Co., Ltd., priority 2015, dated 2018).

Assay: Change in the number of particles in mitomycin C in a stability test under severe conditions (MFI DPA5200 particle quantification)
Format: physicochemical
Conditions: for number of particles ≥10 μm in 10 mg of mitomycin C / number of particles ≥25 μm in 10 mg of mitomycin C: average of triplicates; for change in number of particles having a diameter of 10 μm or more / change in number of particles having a diameter of 25 μm or more: after 300-hour exposure to severe conditions (50° C.), result in words
Description: Change in the Number of Particles in Mitomycin C in a Stability Test under Severe Conditions
300 mg of each mitomycin C prepared in Example 1 and Comparative Examples 1 and 2 is separately placed into a vial, and stored at 50° C. under uncontrolled humidity. Sampling was performed after 0, 191 and 300 hours from the onset of the storage, and whether the number of particles would increase was examined according to the following section “Quantification of Particles in Mitomycin C”.
Quantification of Particles in Mitomycin C
10 mg of mitomycin C was weighed out accurately, water for injection was added to make up the volume to 25 mL exactly, and the resulting solution was used as a sample solution.
The particles in mitomycin C were analyzed with MFI DPA5200 (Protein Simple). Prior to the analysis of the sample solution, the passage in the analytical device was washed with water for injection to obtain the particle-free baseline. 1 mL of the sample solution was drawn into a pipette tip and then loaded on the sample holder. The sample solution was allowed to pass into the passage at a flow rate 0.1 mL/min to completely replace the liquid in the passage, and then the analysis of the sample; solution was started (volume for analysis: 0.61 mL).
The obtained data was filtered on MVAS 1.3 software to extract particles having an aspect ratio of less than 0.85 for the purpose of excluding bubbles. The number of particles having a diameter of 10 μm or more in 10 mg of mitomycin C and the number of particles having a diameter of 25 μm or more in 10 mg of mitomycin C were separately counted using Microsoft Excel.
The above procedure was repeated 3 times, and the average value of the triplicates was used as the quantitative value.

[1] = 191 hours storage at 50° C. under uncontrolled humidity
[2] = 300 hours storage at 50° C. under uncontrolled humidity
[3] = Initial (0 hours), storage at 50° C. under uncontrolled humidity

SMILES | number of particles ≥10 μm in 10 mg of mitomycin C [1] | number of particles ≥25 μm in 10 mg of mitomycin C [1] | number of particles ≥10 μm in 10 mg of mitomycin C [2] | number of particles ≥25 μm in 10 mg of mitomycin C [2] | number of particles ≥10 μm in 10 mg of mitomycin C [3] | number of particles ≥25 μm in 10 mg of mitomycin C [3] | change in number of particles having a diameter of 10 μm or more | change in number of particles having a diameter of 25 μm or more
CO[C@@]12[C@H](COC(N)=O)C3=C(C(=O)C(C)=C(N)C3=O)N1C[C@@H]1N[C@@H]12 [Comparative Example 1, Mitomycin C] | 7063 | 861 | 22527 | 3005 | 2118 | 246 | significant increase | significant increase
CO[C@@]12[C@H](COC(N)=O)C3=C(C(=O)C(C)=C(N)C3=O)N1C[C@@H]1N[C@@H]12 [Comparative Example 2, Mitomycin C] | 279617 | 51953 | 301967 | 36216 | 3853 | 178 | significant increase | significant increase
CO[C@@]12[C@H](COC(N)=O)C3=C(C(=O)C(C)=C(N)C3=O)N1C[C@@H]1N[C@@H]12 [Example 1, mitomycin C] | 3624 | 273 | 5683 | 314 | 3047 | 151 | almost no increase | almost no increase
